What was measured:
[1] = Rabbit single-dose toxicokinetic study; type: in vivo, New Zealand white rabbits; conditions: IV bolus
Description: Pre-IND PD and toxicokinetic (TK) studies (FIG. 4D) were enabled by scalable Rebecsinib synthesis^34 and development of an optimized formulation for in vivo biodistribution (5% w/v EtOH, 5% w/v Kolliphor HS15 in 0.9% Sodium Chloride). In PK studies, Rebecsinib was detectable in rat, rabbit, and non-human primate (NHP) plasma following IV bolus administration. In rat TK studies, Rebecsinib was quantifiable up to 1-hour post-dose at 1 mg/kg and up to 4 hours post-dose at 3, 5, and 8 mg/kg (FIG. 4E). […] Rebecsinib T1/2 values were 0.342, 0.447, 0.313, and 0.530 hours at 1, 3, 5, and 8 mg/kg, respectively. […] Following 3, 10, and 20 mg/kg boluses, Rebecsinib was quantifiable in plasma 1 hour post-dose and could be detected up to 8 hours post-dosing with 40 mg/kg (FIG. 4F). […] Following 3, 10, 15, and 20 mg/kg of Rebecsinib, quantifiable plasma concentrations of Rebecsinib were observed through 8 hrs post-dose (FIG. 4G).
(FIG. 29D) Schematic diagram outlining multispecies toxicokinetic (TK) and pharmacodynamic studies in mammalian species treated in vivo with a single dose of Rebecsinib. Toxicokinetic analyses were performed in rats (n=6 per sex, per group), rabbits (n=2 per sex, per group), and non-human primates (NHPs, n=1 per sex, per group) and pharmacodynamic splice isoform quantification studies were performed in peripheral blood mononuclear cells (PBMCs) from NHP.
(FIG. 29E, FIG. 29F) For toxicokinetic analyses, rats (FIG. 29E) and rabbits (FIG. 29F) were given a single injection of Rebecsinib at 1-40 mg/kg, or vehicle control, and blood samples were drawn at regular intervals to determine plasma concentrations of the compound over 8 hr after treatment.
Single-dose TK studies were performed in Sprague Dawley rats (Charles River Labs, South San Francisco, CA), New Zealand white rabbits (BASi/Inotiv, West Lafayette, IN), and cynomolgus monkeys (BASi/Inotiv). Rat and rabbit studies included toxicology analyses, quantification of plasma levels of Rebecsinib, and necropsies to evaluate organ integrity after treatment. For NHP studies, health and ophthalmological evaluations were performed before and after dosing with Rebecsinib, and blood samples were collected for quantification of plasma levels of Rebecsinib and biomarker studies in PBMCs from treated and control animals. All monkeys were returned to the animal colony after the end of the observation period. Toxicokinetic values including mean plasma concentrations and t1/2 values were calculated according to CRO-approved protocols (Charles River and BASi).

[2] = system: human CD45+ADAR1-GFP+ cells and CD45+CD3+ADAR1-GFP+ cells; experiment: aNBM SAK378 PDX mice, flow cytometry; type: in vivo, human cells in NSG-SGM3 mice; conditions: 10 mg/kg, IV, BIW×2
Description: Aged normal bone marrow (aNBM) PDX mouse models SAK378 were established with 80-100K ADAR1-reporter transduced CD34+ cells by IV injection into NSG-SGM3 mice at the age of 5-6 weeks. When the models were ready, the mice were treated with either vehicle or rebecsinib (10 mg/kg, IV, BIW×2). The mice were sacrificed upon completion of the dosing plan, and single cells from PB, SP, and BM were collected and stained with mAbs for CD45, CD3, CD14, and CD19.

ADAR1 = ADAR1 nanoluc-GFP reporter assay in primary high-risk MF CD34+ cells in stromal co-culture; type: cell-based, human; conditions: primary high-risk MF HPCs, 72 hr; p<0.05 compared to DMSO
Description: (FIG. 27F) Luminescence-based quantification of ADAR1-dependent nanoluciferase signals in CD34^+ cells from primary, high-risk MF samples (*=untreated patient) after in vitro transduction with the ADAR1 nanoluc-GFP reporter and treatment with vehicle control (DMSO) or Rebecsinib (72 hr). Relative luciferase signals were normalized to cell viability for each condition. Data are represented as mean±SEM. p<0.05 compared to DMSO controls by pairwise t-test.
For nanoluciferase RNA editing activity assays, CD34^+ selected cells from primary high-risk MF samples were lentivirally transduced with ADAR1 nanoluc-GFP reporter for 48 hr, followed by treatment with DMSO or Rebecsinib in stromal co-culture for 72 hr. Luminescence reporter activity was measured in 10,000 cells by NANO-GLO LUCIFERASE ASSAY™ and values were normalized to cell viability. Cell viability was measured in 10,000 cells by CellTiter-Glo Luciferase Assay (Promega). A pilot in vivo reporter assay was also performed using TF-1a cells that were stably transduced with the ADAR1 nanoluc-GFP reporter. […] Cells were transplanted into neonatal Rag2^−/−γc^−/− mice (70,000 cells per mouse), and animals were imaged 4 weeks after transplant on the IVIS 200, as previously described.^7,9 Human cell engraftment was also confirmed in the peripheral blood in the same week as imaging.

CC[C@H](OC)[C@@H](C)[C@H]1O[C@@H]1[C@@H](O)[C@H](C)/C=C/C=C(\C)[C@H]1OC(=O)C[C@H](O)CC[C@@](C)(O)[C@@H](OC(C)=O)/C=C/[C@@H]1C [Rebecsinib]
time quantifiable in plasma post-dose ([1]; 3 mg/kg): 1 h | time quantifiable in plasma post-dose ([1]; 10 mg/kg): 1 h | time quantifiable in plasma post-dose ([1]; 20 mg/kg): 1 h | last time detected in plasma post-dosing ([1]; 40 mg/kg): up to 8 hours | half-life ([1]; plasma, read-out: plasma t1/2): 7.2 to 53.4 min | CD45+CD3+GFP+ cells in PB, SP, and BM [2]: spares the cell populations | CD45+GFP+ cells in PB, SP, and BM [2]: spares the cell populations | ADAR1 RNA editing activity (nanoluciferase signal) (ADAR1): significantly reduced ADAR1 RNA editing activity

Source: patent US20260364072A1, “METHODS FOR PROMOTING EXPANSION OF HUMAN CD34+ CELLS IN VIVO AND FOR PROMOTING NEURAL REGENERATION” (THE REGENTS OF THE UNIVERSITY OF CALIFORNIA, priority 2023, published 2026)
